Measurements as given in ChEMBL document CHEMBL3414487, “Synthesis and biological activity of salinomycin conjugates with floxuridine” (Eur J Med Chem, 2015).
≈ marks a conversion by molar mass, not a printed value.

Tests used:
Staphylococcus aureus [1] = assay: Antimicrobial activity against Staphylococcus aureus […] 4163 after 18 hrs by two-fold serial microdilution method; assay type: functional
Staphylococcus aureus [2] = assay: Antimicrobial activity against Staphylococcus aureus ATCC 6538 after 18 hrs by two-fold serial microdilution method; assay type: functional; settings: ATCC 6538, 18 h
[3] = system: Staphylococcus epidermidis; assay: Antimicrobial activity against Staphylococcus epidermidis ATCC 12228 after 18 hrs by two-fold serial microdilution method; assay type: functional; settings: ATCC 12228, 18 h
Staphylococcus aureus [4] = assay: Antimicrobial activity against methicillin-resistant Staphylococcus aureus 452/11 after 18 hrs by two-fold serial microdilution method; assay type: functional; settings: 452/11, 18 h
Staphylococcus aureus [5] = assay: Antimicrobial activity against methicillin-resistant Staphylococcus aureus 456/11 after 18 hrs by two-fold serial microdilution method; assay type: functional; settings: 456/11, 18 h
Staphylococcus aureus [6] = assay: Antimicrobial activity against methicillin-resistant Staphylococcus aureus 514/11 after 18 hrs by two-fold serial microdilution method; assay type: functional; settings: 514/11, 18 h
Staphylococcus aureus [7] = assay: Antimicrobial activity against methicillin-resistant Staphylococcus aureus 522/12 after 18 hrs by two-fold serial microdilution method; assay type: functional; settings: 522/12, 18 h
Staphylococcus aureus [8] = assay: Antimicrobial activity against methicillin-resistant Staphylococcus aureus 573/12 after 18 hrs by two-fold serial microdilution method; assay type: functional; settings: 573/12, 18 h
[9] = system: Staphylococcus epidermidis; assay: Antimicrobial activity against methicillin-resistant Staphylococcus epidermidis 461/11 after 18 hrs by two-fold serial microdilution method; assay type: functional; settings: 461/11, 18 h
[10] = system: Staphylococcus epidermidis; assay: Antimicrobial activity against methicillin-resistant Staphylococcus epidermidis 489/11 after 18 hrs by two-fold serial microdilution method; assay type: functional; settings: 489/11, 18 h
[11] = Antiproliferative activity against human vincristine-resistant HL60/Vinc cells assessed as growth inhibition after 72 hrs by MTT assay; assay type: functional; settings: Homo sapiens, HL60/vinc, 72 h
LoVo [12] = assay: Antiproliferative activity against human LoVo cells assessed as growth inhibition after 72 hrs by SRB method; assay type: functional, cell-based; settings: Homo sapiens, LoVo, 72 h
[13] = Antiproliferative activity against human doxorubicin-resistant LoVo/DX cells assessed as growth inhibition after 72 hrs by SRB method; assay type: functional, cell-based
HT-29 [14] = assay: Antiproliferative activity against human HT-29 cells assessed as growth inhibition after 72 hrs by SRB method; assay type: functional, cell-based; settings: Homo sapiens, HT-29, 72 h
[15] = Antiproliferative activity against human SW707 cells assessed as growth inhibition after 72 hrs by SRB method; assay type: functional, cell-based; settings: Homo sapiens, SW707, 72 h
BALB/3T3 = assay: Antiproliferative activity against mouse BALB/3T3 cells assessed as growth inhibition after 72 hrs by SRB method; assay type: cell-based; settings: BALB/3T3, 72 h
[16] = Antiproliferative activity against human HL60 cells assessed as growth inhibition after 72 hrs by MTT assay; assay type: functional, cell-based; settings: HL-60, 72 h
[17] = Antiproliferative activity against human LS180 cells assessed as growth inhibition after 72 hrs by SRB method; assay type: functional, cell-based; settings: Homo sapiens, LS180, 72 h
HL-60 [18] = assay: Selectivity index, ratio of IC50 for mouse BALB/3T3 cells to IC50 for human HL60 cells; assay type: functional
[19] = Selectivity index, ratio of IC50 for mouse BALB/3T3 cells to IC50 for human HL60/Vinc cells; assay type: functional
LoVo [20] = assay: Selectivity index, ratio of IC50 for mouse BALB/3T3 cells to IC50 for human LoVo cells; assay type: functional
[21] = Selectivity index, ratio of IC50 for mouse BALB/3T3 cells to IC50 for human LoVo/DX cells; assay type: functional
HT-29 [22] = assay: Selectivity index, ratio of IC50 for mouse BALB/3T3 cells to IC50 for human HT-29 cells; assay type: functional
[23] = Selectivity index, ratio of IC50 for mouse BALB/3T3 cells to IC50 for human LS180 cells; assay type: functional
[24] = Selectivity index, ratio of IC50 for mouse BALB/3T3 cells to IC50 for human SW707 cells; assay type: functional
HL-60 [25] = assay: Resistance index, ratio of IC50 for human HL60/Vinc cells to IC50 for human HL60 cells
LoVo [26] = assay: Resistance index, ratio of IC50 for human LoVo/DX cells to IC50 for human LoVo cells
Staphylococcus aureus [27] = assay: Antimicrobial activity against Staphylococcus aureus ATCC 25923 after 18 hrs by two-fold serial microdilution method; assay type: functional; settings: ATCC 25923, 18 h
Staphylococcus aureus [28] = assay: Antimicrobial activity against Staphylococcus aureus ATCC 29213 after 18 hrs by two-fold serial microdilution method; assay type: functional; settings: ATCC 29213, 18 h
[29] = system: Staphylococcus epidermidis; assay: Antimicrobial activity against Staphylococcus epidermidis ATCC 35984 after 18 hrs by two-fold serial microdilution method; assay type: functional; settings: ATCC 35984, 18 h
Staphylococcus aureus [30] = assay: Antimicrobial activity against methicillin-resistant Staphylococcus aureus 462/11 after 18 hrs by two-fold serial microdilution method; assay type: functional; settings: 462/11, 18 h
Staphylococcus aureus [31] = assay: Antimicrobial activity against methicillin-resistant Staphylococcus aureus 537/12 after 18 hrs by two-fold serial microdilution method; assay type: functional; settings: 537/12, 18 h
Staphylococcus aureus [32] = assay: Antimicrobial activity against methicillin-resistant Staphylococcus aureus 572/12 after 18 hrs by two-fold serial microdilution method; assay type: functional; settings: 572/12, 18 h
Staphylococcus aureus [33] = assay: Antimicrobial activity against methicillin-resistant Staphylococcus aureus 585/12 after 18 hrs by two-fold serial microdilution method; assay type: functional; settings: 585/12, 18 h
Staphylococcus aureus [34] = assay: Antimicrobial activity against methicillin-resistant Staphylococcus aureus 586/12 after 18 hrs by two-fold serial microdilution method; assay type: functional; settings: 586/12, 18 h
[35] = system: Staphylococcus epidermidis; assay: Antimicrobial activity against methicillin-resistant Staphylococcus epidermidis 459/11 after 18 hrs by two-fold serial microdilution method; assay type: functional; settings: 459/11, 18 h
[36] = system: Staphylococcus epidermidis; assay: Antimicrobial activity against methicillin-resistant Staphylococcus epidermidis 460/11 after 18 hrs by two-fold serial microdilution method; assay type: functional; settings: 460/11, 18 h
[37] = system: Staphylococcus epidermidis; assay: Antimicrobial activity against methicillin-resistant Staphylococcus epidermidis 466/11 after 18 hrs by two-fold serial microdilution method; assay type: functional; settings: 466/11, 18 h
[38] = system: Staphylococcus epidermidis; assay: Antimicrobial activity against methicillin-resistant Staphylococcus epidermidis 467/11 after 18 hrs by two-fold serial microdilution method; assay type: functional; settings: 467/11, 18 h
[39] = system: Staphylococcus epidermidis; assay: Antimicrobial activity against methicillin-resistant Staphylococcus epidermidis 468/11 after 18 hrs by two-fold serial microdilution method; assay type: functional; settings: 468/11, 18 h
[40] = system: Staphylococcus epidermidis; assay: Antimicrobial activity against methicillin-resistant Staphylococcus epidermidis 469/11 after 18 hrs by two-fold serial microdilution method; assay type: functional; settings: 469/11, 18 h
[41] = system: Staphylococcus epidermidis; assay: Antimicrobial activity against methicillin-resistant Staphylococcus epidermidis 470/11 after 18 hrs by two-fold serial microdilution method; assay type: functional; settings: 470/11, 18 h
[42] = system: Staphylococcus epidermidis; assay: Antimicrobial activity against methicillin-resistant Staphylococcus epidermidis 488/11 after 18 hrs by two-fold serial microdilution method; assay type: functional; settings: 488/11, 18 h

Work on `O=C(O)c1cn(C2CC2)c2cc(N3CCNCC3)c(F)cc2c1=O` [CIPROFLOXACIN] yielded an MIC (Staphylococcus aureus [1]) of 0.76 µM (≈ 252 ng/mL), an MIC (Staphylococcus aureus [2]) of 0.76 µM (≈ 252 ng/mL) and an MIC [3] of 0.76 µM (≈ 252 ng/mL). For the same molecule, the MIC (Staphylococcus aureus [4]) was 96.7 µM (≈ 32000 ng/mL), the MIC (Staphylococcus aureus [5]) was 96.7 µM (≈ 32000 ng/mL) and the MIC (Staphylococcus aureus [6]) was 96.7 µM (≈ 32000 ng/mL). For the same molecule, the MIC (Staphylococcus aureus [7]) was 96.7 µM (≈ 32000 ng/mL), the MIC (Staphylococcus aureus [8]) was 96.7 µM (≈ 32000 ng/mL) and the MIC [9] was 0.76 µM (≈ 252 ng/mL). It also gave an MIC [10] of 0.76 µM (≈ 252 ng/mL).

Work on `COc1cccc2c1C(=O)c1c(O)c3c(c(O)c1C2=O)C[C@@](O)(C(=O)CO)C[C@@H]3O[C@H]1C[C@H](N)[C@H](O)[C@H](C)O1` [DOXORUBICIN] yielded an IC50 [11] of 0.88 µM, an IC50 (LoVo [12]) of 0.15 µM and an IC50 [13] of 5.46 µM. The IC50 (HT-29 [14]) was 0.89 µM, the IC50 [15] was 0.18 µM and the IC50 (BALB/3T3) was 0.18 µM.

For `O=c1[nH]c(=O)n([C@H]2C[C@H](O)[C@@H](CO)O2)cc1F` [FLOXURIDINE], the IC50 [16] was 0.24 µM, the IC50 [11] was 17.4 µM and the IC50 (LoVo [12]) was 19.1 µM. It also gave an IC50 [13] of 16.7 µM, an IC50 (HT-29 [14]) of 115 µM and an IC50 [17] of 140 µM. The IC50 [15] was 23.9 µM, the IC50 (BALB/3T3) was 23.9 µM and the “Selectivity Index” value (HL-60 [18]) was 99.58. For the same molecule, the “Selectivity Index” value [19] was 1.37, the “Selectivity Index” value (LoVo [20]) was 1.25 and the “Selectivity Index” value [21] was 1.43. The “Selectivity Index” value (HT-29 [22]) was 0.21, the “Selectivity Index” value [23] was 0.17 and the “Selectivity Index” value [24] was 1. The “Ratio IC50” value (HL-60 [25]) was 72.5, the “Ratio IC50” value (LoVo [26]) was 0.87 and the MIC (Staphylococcus aureus [1]) was ≤ 0.016 µM. For the same molecule, the MIC (Staphylococcus aureus [27]) was ≤ 0.016 µM, the MIC (Staphylococcus aureus [2]) was ≤ 0.016 µM and the MIC (Staphylococcus aureus [28]) was ≤ 0.016 µM. The MIC [3] was ≤ 0.016 µM, the MIC [29] was ≤ 0.016 µM and the MIC (Staphylococcus aureus [4]) was ≤ 0.016 µM. For the same molecule, the MIC (Staphylococcus aureus [5]) was ≤ 0.016 µM, the MIC (Staphylococcus aureus [30]) was ≤ 0.016 µM and the MIC (Staphylococcus aureus [6]) was ≤ 0.016 µM. For the same molecule, the MIC (Staphylococcus aureus [7]) was ≤ 0.016 µM, the MIC (Staphylococcus aureus [31]) was ≤ 0.016 µM and the MIC (Staphylococcus aureus [32]) was ≤ 0.016 µM. The MIC (Staphylococcus aureus [8]) was ≤ 0.016 µM, the MIC (Staphylococcus aureus [33]) was ≤ 0.016 µM and the MIC (Staphylococcus aureus [34]) was ≤ 0.016 µM. The MIC [35] was ≤ 0.016 µM, the MIC [36] was ≤ 0.016 µM and the MIC [9] was ≤ 0.016 µM. The MIC [37] was ≤ 0.016 µM, the MIC [38] was ≤ 0.016 µM and the MIC [39] was ≤ 0.016 µM. The MIC [40] was ≤ 0.016 µM, the MIC [41] was ≤ 0.016 µM and the MIC [42] was ≤ 0.016 µM. For the same molecule, the MIC [10] was ≤ 0.016 µM.
